This note sets out measurements from PMC8698672, “Selective Anticancer and Antimicrobial Metallodrugs Based on Gold(III) Dithiocarbamate Complexes” (Biomedicines, 2021).

Series [1] in a line: n-octanol/water partition coefficient, shake-flask method. The class given is physicochemical. The following applies: n-octanol / buffered saline pH 7.4, shake-flask. Here is the method:
The n-octanol/water coefficient of the complexes was determined using the shake-flask method previously described. Buffered-saline distilled water (100 mL, phosphate buffer PO4^3− = 10 mM, (NaCl = 0.15 M, pH 7.4) and n-octanol (100 mL) were shaken together for 72 h to allow the saturation of both phases. Approximately 1 mg of the complexes was dissolved in 5 mL of the aqueous phase, and 5 mL of the organic phase was added, mixing for 10 min. The resulting emulsion was centrifuged to separate the phases. The concentration of the compounds in each phase was determined using UV−Vis absorbance spectroscopy. Log P7.4 was calculated as log (Absorganic/Absaqueous).
Biodistribution studies should be conducted to evaluate whether our complexes could reach their pharmacological target. The potential biodistribution of our complexes was evaluated by the measure of the partition coefficient. This parameter indicates how balanced the lipo- and hydrophilicity of the compounds are. Good equilibrium between these two properties is crucial for proper distribution inside the organism. The bloodstream is aqueous in nature, so hydrophilicity is needed for drug delivery, but too-high hydrophilicity can hinder the penetration of biological membranes. Of course, high lipophilicity behavior can hinder biomedical applications related to a good distribution profile. The chosen method to measure the partition coefficient (Log Pow) was the shake-flask technique, with ideal values in the range of −1 ≤ Log P ow ≤ 3. However, for a greater oral and intestinal absorption, a more restricted range has values around 1.35–1.80 [57]. Table 2 collects all of the obtained Log Pow values, and it can be seen that, although only complex [Au(ppy)(dedtc)]PF6 (C4) satisfied this restricted range, all of them presented acceptable values of Log Pow.

For a further series, the target named is T1, BSA (Bos taurus, UniProt P02769).
T1 construct: purchased Sigma Aldrich
The experiment in a line: BSA interaction, fluorescence quenching (Stern–Volmer). The class given is binding, bovine. The note with it: for bimolecular quenching constant kq: BSA 50 μM in PBS pH 7.4; for Stern–Volmer quenching constant KSV: BSA 50 μM in PBS pH 7.4, excitation 295 nm; for number of binding sites n: modified Stern–Volmer equation; for number of binding sites n, rounded (in brackets): whole number printed in brackets after n. On the procedure:
BSA was commercially available from Sigma Aldrich. A 2 mM solution of BSA was prepared in PBS (10 mM, pH = 7.4). The final concentration of the stock BSA solution was checked by UV–Vis spectra (ε279 nm = 43,824 M^−1 cm^−1). The value obtained was the real concentration of the stock solution. A 6 mM stock solution of the gold complexes in DMSO was prepared and different aliquots of the gold complex were added to a 50 μM solution of BSA in PBS and placed in a quartz cuvette of 1 cm optical path. The fluorescence spectra were recorded on a Horiba Jobin Yvon (Bensheim, Germany) fluorolog FL-3-11 spectrometer. The samples were excited at 295 nm and the emission spectra were recorded in a range from 310 to 450 nm with emission slits set to 2 nm. The fluorescence was measured for 4 min after every addition of the gold complex aliquots. The fluorescence intensities of the PBS and the gold complexes were irrelevant under the described conditions.
The data were analyzed using the Stern−Volmer equation F0/F = 1 + KSV (gold complex) = 1 + Kqτ0 (gold complex) (τ0 = lifetime of BSA in absence of the quencher) to obtain the Stern−Volmer quenching constant (KSV) and the quenching rate constant (Kq). The binding constant (Kb) was quantified using the modified Stern−Volmer equation: log {(F0 − F)/F} = log Kb + n log (gold complex) (n = number of binding sites).
This intrinsic fluorescence is extremely sensitive to the environment, so any binding or interaction of molecules induces changes in the BSA emission spectrum. Consequently, interaction with BSA studies are based on monitoring the BSA luminescence in the range of 300–450 nm by adding increasing concentrations of Au(III) complexes (Figure 3a and Figure S6). The obtained fluorescence data were analyzed using the Stern–Volmer equation, which allows the Stern-Volmer quenching constant KSV and the bimolecular quenching constant kq to be calculated (Figure 3b). In most of the cases studied, the Stern–Volmer representation fit a straight line, indicative of a single quenching mode, either static or dynamic. In case of drug development, static quenching is usually required to probe an interaction between the drug and the protein. By studying the bimolecular quenching constant (kq), the operated quenching can be determined since this parameter represents the efficiency of quenching or how accessible the fluorophores are to the quencher. Dynamic quenching depends on diffusion processes, so a higher kq value than the diffusion-controlled rate constant of the biomolecule in water, 10^10 M^−1s^−1, may indicate a contribution of static quenching. […] Additionally, the modified Stern–Volmer equation permits the values of the binding constant (Kb) for each gold complex and the number of binding sites (n) to be calculated. According to the Kb values observed in Table 3, there was a moderated interaction force between complex-BSA. These values were higher than other reported for gold(I) complexes, but similar to the documented interactions for potential drugs based on ruthenium or nickel.

Series [2] has as its system methicillin-resistant Staphylococcus aureus (Sa). The series is classed as cell-based. The following applies: 18 h, 37 °C, inhibition ≥ 80%. Here is the method:
The antimicrobial assays were performed according to the protocols of the Community for Open Antimicrobial Drug Discovery (CO-ADD). C1–6 were prepared in DMSO and water to a final testing concentration of 32 μg/mL and serially diluted 1:2-fold 8 times. Each sample concentration was prepared in 384-well plates, non-binding surface plate (NBS; Corning 3640) for each bacterial/fungal strain, all in duplicate (n = 2), and keeping the final DMSO concentration to a maximum of 0.5%. All the sample preparation was done using liquid-handling robots.
(§1) The antibacterial activity of all synthesized complexes was evaluated in five different pathogenic bacteria, including methicillin-resistant Staphylococcus aureus (Sa), Escherichia coli (Ec), Klebsiella pneumonia (Kp), Psedomonas aeruginosa (Pa), and Acinetobacter baumannii (Ab). All bacteria were cultured in cation-adjusted Mueller Hinton Broth (CAMHB) at 37 °C overnight. A sample of each culture was then diluted 40-fold in fresh broth and incubated at 37 °C for 1.5–3 h. The resultant mid-log phase cultures were diluted (CFU/mL measured by OD600), then added to each well of the complexes containing plates, giving a cell density of 5 × 10^5 CFU/mL and a total volume of 50 μL. All the plates were covered and incubated at 37 °C for 18 h without shaking. The inhibition of bacterial growth was determined by measuring the absorbance at 600 nm (OD600) using a Tecan M1000 Pro monochromator plate reader (Männedorf, Switzerland). The percentage of growth inhibition was calculated for each well, using the negative control (media only) and positive control (bacteria without inhibitors) on the same plate as references. […]

The test system of a further series is Escherichia coli (Ec). Description: Antibacterial MIC assay (CO-ADD). The series is classed as cell-based. The following applies: 18 h, 37 °C, inhibition ≥ 80%. On the procedure:
(§2) The antimicrobial assays were performed according to the protocols of the Community for Open Antimicrobial Drug Discovery (CO-ADD). […] All the sample preparation was done using liquid-handling robots.
as §1

For series [3], the system named is Acinetobacter baumannii (Ab). Description: Antibacterial MIC assay (CO-ADD). The class given is cell-based. The note with it: 18 h, 37 °C, inhibition ≥ 80%. Here is the method: as §2, §1
Series [4] relates to Psedomonas aeruginosa (Pa). The experiment in a line: Antibacterial MIC assay (CO-ADD). The class given is cell-based. The note with it: 18 h, 37 °C, inhibition ≥ 80%. On the procedure: as §2, §1

Regarding `Cc1ccc(-c2ccccn2)[c]([Au+][S]C(=S)N(C)C)c1.F[P-](F)(F)(F)(F)F` [Complex C1, [Au(tpy)(dmdtc)] PF6], in series [1], the “Log Pow” value stood at 0.61. Moreover, on BSA, the “bimolecular quenching constant kq” value amounted to 1.3e+12 M⁻¹ s⁻¹; the “Stern–Volmer quenching constant KSV” value was found to be 13000 M⁻¹; the “number of binding sites n” value amounted to 1.72; the “number of binding sites n, rounded (in brackets)” value (“number … (in brackets)” below) was found to be 2. In series [2], the “MIC Sa” value is given as at most 0.25 µg/mL. Also, in the series on Escherichia coli (Ec), the “MIC Ec” value stood at 32 µg/mL. For the same compound, the “MIC Ab” value in series [3] was above 32 µg/mL. Besides, in series [4], the “MIC Pa” value is recorded as above 32 µg/mL.

As for `CN(C)C(=S)[S][Au+][c]1ccccc1-c1ccccn1.F[P-](F)(F)(F)(F)F` [Complex C2, [Au(ppy)(dmdtc)]PF6], the “Log Pow” value in series [1] turned out to be 1.11. On BSA, the “bimolecular quenching constant kq” value turned out to be 1.37e+12 M⁻¹ s⁻¹; the “Stern–Volmer quenching constant KSV” value is 13700 M⁻¹; the “number of binding sites n” value was 1.42; the “number … (in brackets)” value turned out to be 1. Moreover, the “MIC Sa” value in series [2] is given as at most 0.25 µg/mL. For the same compound, in the series on Escherichia coli (Ec), the “MIC Ec” value stood at 32 µg/mL. In addition, the “MIC Ab” value in series [3] came to 32 µg/mL. Also, the “MIC Pa” value in series [4] is listed as above 32 µg/mL.

For the compound `CCN(CC)C(=S)[S][Au+][c]1cc(C)ccc1-c1ccccn1.F[P-](F)(F)(F)(F)F` [Complex C3, [Au(tpy)(dedtc)]PF6], the “Log Pow” value in series [1] amounted to 1.17. Moreover, on BSA, the “bimolecular quenching constant kq” value is 1.9e+12 M⁻¹ s⁻¹; the “Stern–Volmer quenching constant KSV” value amounted to 19000 M⁻¹; the “number of binding sites n” value is 0.95; the “number … (in brackets)” value was determined as 1. Moreover, in series [2], the “MIC Sa” value is reported as at most 0.25 µg/mL. The “MIC Ec” value in the series on Escherichia coli (Ec) is 32 µg/mL. Further, the “MIC Ab” value in series [3] was above 32 µg/mL. Besides, in series [4], the “MIC Pa” value is above 32 µg/mL.

Consider `Cc1ccc2[c](c1)[Au-]1([S]C(N(Cc3ccccc3)Cc3ccccc3)=[S+]1)[n+]1ccccc1-2.F[P-](F)(F)(F)(F)F` (stereo not drawn) [Complex C5, [Au(tpy)(dbdtc)]PF6], for which the “Log Pow” value in series [1] is given as 0.89. At BSA, the “bimolecular quenching constant kq” value amounted to 4.43e+12 M⁻¹ s⁻¹; the “Stern–Volmer quenching constant KSV” value amounted to 44300 M⁻¹; the “number of binding sites n” value is 1.57; the “number … (in brackets)” value is given as 1–2. In addition, the “MIC Sa” value in series [2] came to 32 µg/mL. In the series on Escherichia coli (Ec), the “MIC Ec” value is above 32 µg/mL. Moreover, the “MIC Ab” value in series [3] is given as above 32 µg/mL. Also, in series [4], the “MIC Pa” value is reported as above 32 µg/mL.

`F[P-](F)(F)(F)(F)F.S=C([S][Au+][c]1ccccc1-c1ccccn1)N(Cc1ccccc1)Cc1ccccc1` [Complex C6, [Au(ppy)(dbdtc)]PF6]: the “Log Pow” value in series [1] is reported as 1.00. On BSA, the “bimolecular quenching constant kq” value amounted to 6.44e+12 M⁻¹ s⁻¹; the “Stern–Volmer quenching constant KSV” value is 64400 M⁻¹; the “number of binding sites n” value came out at 1.43; the “number … (in brackets)” value is given as 1. In addition, the “MIC Sa” value in series [2] stood at 4 µg/mL. Moreover, the “MIC Ec” value in the series with Escherichia coli (Ec) is listed as above 32 µg/mL. For the same compound, in series [3], the “MIC Ab” value was 32 µg/mL. Moreover, the “MIC Pa” value in series [4] is given as above 32 µg/mL.

On to [Au(ppy)(dedtc)]PF6 [Complex C4], for which the “Log Pow” value in series [1] worked out at 1.57. For the same compound, at BSA, the “bimolecular quenching constant kq” value came to 2.01e+12 M⁻¹ s⁻¹; the “Stern–Volmer quenching constant KSV” value was 20100 M⁻¹; the “number of binding sites n” value was determined as 1.18; the “number … (in brackets)” value is 1. Besides, in series [2], the “MIC Sa” value was at most 0.25 µg/mL. Also, the “MIC Ec” value against Escherichia coli (Ec) amounted to 32 µg/mL. Moreover, the “MIC Ab” value in series [3] is reported as above 32 µg/mL. In series [4], the “MIC Pa” value is above 32 µg/mL.
